In US20230113516A1, “5-AMINO-2,3-DIHYDRO-1,4-PHTHAL[…] TREATMENT OF ACUTE LUNG INJURY” (Metriopharm AG, priority 2020, published 2023):
Read-outs that look alike come from different tables or passages of the source.

What was measured:
[1] = test system: SARS-CoV-2
[2] = test system: murine peritoneal macrophages
Source text: Female C57Bl/6 mice (6-8 weeks old) were purchased from Envigo (San Petro al Natisone, Udine, Italy) and housed under standard laboratory conditions (specific-pathogen free). Food and water were applied ad libitum. Animal handling and the study protocol were in accordance with international guidelines.
Four days after i.p. injection of 3% thioglycolate medium (w/v in distilled water; St Louis, Mo. USA), murine peritoneal macrophages (PM) were isolated according to the protocol of Zhang et al. (Curr. Protoc. Immunol. 2008, Chapter 14, Unit 14.1).
Briefly, cells were collected by injecting 10 ml of complete medium (DMEM/F12 Medium containing 10% fetal calf serum) into the peritoneal cavity using a 30 cc syringe attached to a 19-G needle, followed by slowly withdrawing the lavage fluid. Cells were washed twice in PBS (phosphate buffered saline) and counted.
One hour prior to LPS (lipopolysaccharide) stimulation (0.1 μg/ml; Escherichia coli […], St Louis, Mo. USA), cells (0.5×10^6 cells/well in 24-well plates with 1 ml total volume of medium) were pre-treated with scalar concentrations of 5-amino-2,3-dihydro-1,4-phthalazinedione sodium salt (ranging from 1 mM to 0.025 mM). Two independent experiments (each using cells pooled from three mice) were performed and secreted cytokine levels were determined 24, 48 and 72 h after LPS stimulation using ELISA technique.

[3] = test system: 3-nitrotyrosine formation in the lung parenchyma; conditions: for 3-nitrotyrosine stained surface area, mean ± SEM: cigarette smoke alone 3.07, room air 0.24
Experimental: C57BL/6J mice (n=25, 5 per group; male/female, 3-6 months, 20-30 g; Charles River GmbH, Sulzfeld, Germany) were anesthetized with a ketamine (100 mg/kg body weight) and xylazine (20 mg/kg body weight) intraperitoneal injection (Ceva Tiergesundheit GmbH, Dusseldorf, Germany) containing heparin (50 I.E. heparin/g body weight; Ratiopharm GmbH, Ulm, Germany). The lungs and the heart were removed from the chest cavity and placed on the ILU system (see FIGS. 1A and 1B). Lungs were ventilated in an isolated chamber using normoxic gas (21% O2, 5% CO2, 74% N2; 150 breaths per minute at the PEEP (positive end-expiratory pressure) of 3 cm H2O) and perfused with a modified Krebs-Henseleit buffer (120.0 mM NaCl, 4.3 mM KCl, 1.1 mM KH2PO4, 2.4 mM CaCl2, 1.3 mM MgCl2, 13.14 mM glucose, 0.25 mM hydroxyethyl starch 200000/0.5, 25.0 mM NaHCO3 adjusted to a constant pH range of […] L-arginine; Serag-Wissner GmbH & Co. KG, Naila, Germany) at a temperature of 37° C. Lung weight, right and left ventricle pressure, as well as ventilatory pressure were monitored and recorded during the whole experimental procedure. After 5-10 minutes, when the lung was properly flushed and all the parameters were stable, 5-amino-2,3-dihydro-1,4-phthalazinedione sodium salt was applied by adding 150 μl of a stock solution to 15 ml of the circulating perfusion buffer. The substance was applied 10 minutes prior to the first cigarette smoke application. Cigarette smoke was applied via trachea while lung is perfused with the buffer containing 5-amino-2,3-dihydro-1,4-phthalazinedione sodium salt. Cigarette smoke was prepared freshly before each application, by burning one cigarette (research cigarettes 3R4F, University of Kentucky, USA) in one minute using normoxic gas at the flow of 1 l/min and collected in a 1 l glass bottle containing 5 g silica gel for removing the moist from the cigarette smoke. 50 ml of the cigarette smoke were taken via a syringe and applied to the lung via trachea (FIG. 4A) in deep breaths (periodic inflation for 3-4 s) over a period of 5 min. The application was done manually while carefully monitoring the inspiratory pressure to avoid damage of the lung. The cigarette smoke application was repeated three times with a 1 hour break in-between.
5-amino-2,3-dihydro-1,4-phthalazinedione sodium salt Form I was dissolved in water for injection (vehicle) at the required concentrations described above. Stock solutions were prepared in water for injection. Further 1:100 dilutions were made with modified Krebs-Henseleit buffer (see above). Stock solutions were stored at −70° C. in appropriate aliquots. The required amount of stock solution was thawed, and the corresponding working solution was prepared for immediate use.
One hour after the third cigarette smoke application lungs were removed from the system and fixed by inflating with formalin solution (via trachea) at the pressure of 12-15 cm H2O for two hours at room temperature. Afterwards the fixed lungs were kept in PBS (phosphate buffer saline, see below) at +4° C. until further dehydration and paraffin embedding. Paraffin blocks were cut 3 μm thick, dried overnight at 37° C. and stained for 3-nitrotyrosine (3-NT).
The immunohistochemical staining of 3-nitrotyrosine was carried out according to the following protocol:
Stained histological samples were blindly analysed by light microscope. 3-nitrotyrosine levels in the lung parenchyma were quantified as a percentage of stained surface area. Quantification was performed under 200× magnification in 5-10 randomly selected fields with exclusion of large bronchi and vessels. One-Way ANOVA statistical test with Bonferroni correction was performed for comparison between groups. Differences with p<0.05 were considered statistically significant.

[4] = test system: PCI model of sepsis; conditions: for survival rate after 10 days: therapeutic mode, n=6
Experimental: In the PCI (peritoneal contamination and infection) model of sepsis a human fecal suspension was injected intraperitoneally to mice (3 μl/g body weight). To all groups the antibiotic meropenem (25 mg/kg body weight) was administered 6 hours after PCI induction. At this time point all mice received also a volume loading with a 5% glucose solution. This treatment is repeated on the two consecutive days after PCI induction, at intervals of 24 hours. • Group I: control (not infected) • Group II: PCI (infected, without treatment) • Group III: PCI+2 mg/kg body weight 5-amino-2,3-dihydro-1,4-phthalazinedione sodium salt Form I • Group IV: PCI+5 mg/kg body weight 5-amino-2,3-dihydro-1,4-phthalazinedione sodium salt Form I
Starting at 8 hours after PCI induction the mice of the treatment groups were treated for two consecutive days every 8 hours with an intraperitoneal injection of 2 mg/kg body weight, respectively 5 mg/kg body weight 5-amino-2,3-dihydro-1,4-phthalazinedione sodium salt Form I. Thereupon the mice were treated for further eight days with an intraperitoneal injection of 2 mg/kg body weight, respectively 5 mg/kg body weight 5-amino-2,3-dihydro-1,4-phthalazinedione sodium salt Form I once daily. (n=6)
Herein the mice were treated with 5 mg/kg body weight 5-amino-2,3-dihydro-1,4-phthalazinedione sodium salt Form I only, but only twice, 3 hours before PCI induction and 6 hours after (n=8).
The Clinical Severity Score (CSS) was assessed daily for the mice of the prophylactic treatment group. The CSS was assessed according to Gonnert et al. (2011) J Surg Res 170: e123-134.

[5] = test system: Vero B4 cells; conditions: antivirally effective concentrations; observation period of 3 days; tested 0.25-4 mM
Source text: Herein viable cells with an intact mitochondrial succinate-tetrazolium dehydrogenase system effect an enzymatic conversion of the feebly red tetrazolium salt WST-1 (4-[3-(4-iodophenyl)-2-(4-nitrophenyl)-2H-5-tetrazolio]-1,3 benzene disulfonate) into dark red formazan. This color change can be measured photometrically in a spectrophotometer. Thus, the WST assay is a very sensitive method for measuring the toxicity of substances on the cell metabolism. The value for untreated cells was set to 100%.
The value for untreated cells was set to 100%. 1 μM staurosporine (an indolocarbazole compound from Streptomyces staurosporeus, an apoptosis inducer) was used as positive control.

[6] = 1 mM, pre-treatment 1 h prior to LPS (0.1 μg/ml), C57Bl/6 PMs

In the case of `Nc1cccc2c(=O)[nH][nH]c(=O)c12.[Na]` [5-amino-2,3-dihydro-1,4-phthalazinedione sodium salt], the “SARS-CoV-2 nucleocapsid protein (Western Blot)” value [1] is reported as “clear reduction”, the “generation of SARS-CoV-2 proteins (densitometric evaluation)” value [1] is reported as “inhibited dose-dependently” and the “reduction of IL-1-beta level” value [2, 6] is reported as about 50%. For the same compound, the “reduction of IL-6 level” value [2, 6] was about 80%, the “reduction of IL-12 level” value [2, 6] was about 60% and the “reduction of TNF-alpha level” value [2, 6] was “about 40%”. For the same compound, the “cytokine reduction in PMs of a second mouse strain” value ([2]; Balb/c, six concentrations from 1 mM to 0.25 mM, data not shown) was “clear dose-dependency”, the “cytokine secretion of unstimulated murine PMs” value ([2]; no LPS, data not shown) was “did not affect” and the “cigarette smoke induced 3-nitrotyrosine formation (in words)” value ([3]; 0.5 mM in perfusion buffer) was “moderate effect”. For the same compound, the “cigarette smoke induced 3-nitrotyrosine formation (in words)” value ([3]; 1 mM in perfusion buffer) was “almost completely abolished”, the “cigarette smoke induced 3-nitrotyrosine formation (in words)” value ([3]; 2 mM in perfusion buffer) was “almost completely abolished” and the “3-nitrotyrosine stained surface area, mean ± SEM” value ([3]; cigarette smoke + 0.5 mM in perfusion buffer (group C)) was 2.24 ± 0.28 % area. The “3-nitrotyrosine stained surface area, mean ± SEM” value ([3]; cigarette smoke + 1 mM in perfusion buffer (group D)) was 0.72 ± 0.26 % area, the “3-nitrotyrosine stained surface area, mean ± SEM” value ([3]; cigarette smoke + 2 mM in perfusion buffer (group E)) was 0.37 ± 0.13 % area and the survival rate ([4]; prophylactic mode, 5 mg/kg body weight, 3 hours before and 6 hours after PCI induction, Group IV, n=8) was 100%. For the same compound, the “recovery (Clinical Severity Score) versus untreated group” value ([4]; prophylactic mode, 5 mg/kg body weight, in particular after Day 4) was “recovered clearly more quickly”, the “Clinical Severity Score (CSS) versus untreated group” value ([4]; prophylactic mode, 5 mg/kg body weight, surviving animals) was “less strongly diseased” and the “survival rate after 10 days” value ([4]; 2 mg/kg body weight i.p., Group III) was 50%. For the same compound, the “survival rate after 10 days” value ([4]; 5 mg/kg body weight i.p., Group IV) was 83% and the “toxic effect (cell viability, WST assay)” value [5] was “does not display any significant toxic effect”.
